Assays:
[1] = test system: ERSE-FLuc reporter (ATF6 arm of the UPR); experiment: ERSE-FLuc reporter, 1536-well confirmation screen in HEK293T-Rex cells; assay type: cell-based; conditions: % Tg (500 nM) activation, triplicate confirmation screen at 6.8 μM, 18 h
Excerpt: We employed a transcriptional reporter that quantifies activation of the ATF6 arm of the UPR in HEK293T-Rex cells. This reporter contains a fragment of the UPR-inducible BiP promoter, including three ER stress-responsive elements (ERSEs), driving expression of firefly luciferase (ERSE-FLuc; FIG. 1a)^34. We previously employed this reporter for a small-scale screen using the 1280 member compound Library of Pharmacologic Active Compounds (LoPAC) to find small molecules that activate the UPR^8. […] Optimization and miniaturization of this assay to 1536-well format was performed at the Scripps Research Institute Molecule Screening Center (SRIMSC).
HEK293T-Rex cells incorporating either the ERSE-FLuc or XBP1s-RLuc reporters were collected by trypsinization and resuspended at a density of 500,000 cells per mL. The assay was started by dispensing 5 μL of cell suspension into each well of white, solid-bottom 1536-well plates using a flying reagent dispenser (FRD) and placed into an online incubator 3 h. Cells were then treated with 34 nL/well of either test compounds to give final concentrations of 6.8 μM, DMSO (Low control, final concentration 0.68%, 0% activation) or […] of Delta-7 thapsigargin (High control, final concentration 500 nM, 100% activation). Plates were incubated for 18 h at 37° C., removed from the incubator and equilibrated to room temperature for 10 min. Luciferase activity was detected by addition of 5 μL of ONE-Glo reagent (Promega) to each well. After a 10 min incubation time, light emission was measured with the ViewLux reader (PerkinElmer). The percent activation of each test compound was calculated as follows: % Activation=100*(Test Compound−Median Low Control)/(Median High Control ˜Median Low Control).

^FTTTR^WT = experiment: [35S] metabolic labeling, secretion of flag-tagged TTR^WT from HepG2^ATF6 cells; assay type: cell-based; conditions: 15 h pretreatment, 10 μM compound or 1 μM Tg, 4 h chase
Method: (§1) HepG2 cells or HEK293T cells plated on poly-D-lysine coated plates were metabolically labeled in DMEM-Cys/-Met (CellGro) supplemented with glutamine, penicillin/streptomycin, dialyzed fetal bovine serum, and EasyTag EXPRESS^35S Protein Labeling Mix (Perkin Elmer) for 30 min. Cells were washed twice with complete media and incubated in prewarmed DMEM for the indicated times. Media or lysates were harvested at the indicated times. Lysates were prepared in RIPA buffer with fresh protease inhibitor cocktail (Roche). FLAG tagged TTR variants or ALLC were immunopurified using M1 anti-FLAG agarose beads (Sigma-Aldrich) and washed three times with RIPA buffer. The immunoisolates were then eluted by boiling in Laemmli buffer and separated on SDS-PAGE. For total secreted media, 15 uL aliquots from media incubated for 4 hrs on pulsed cells were run on a SDS-PAGE. The gels were then dried, exposed to phosphorimager plates (GE Healthcare), and imaged with a Typhoon imager. Band intensities were quantified by densitometry in ImageQuant. Fraction secreted was calculated using the equation: fraction secreted=[extracellular [^35S]-LC signal at t=t/(extracellular [^35S]-LC signal at t=0+intracellular [^35S]-LC signal at t=0)]. Fraction remaining was calculated using the equation: [(extracellular [^35S]-LC signal at t=t+intracellular [^35S]-LC signal at t=t)/(extracellular [^35S]-LC signal at t=0+ intracellular [^35S]-LC signal at t=0)].

[2] = test system: endogenous secretory proteome of HepG2^ATF6 cells; experiment: [35S] metabolic labeling, total secreted protein from HepG2^ATF6 cells; assay type: cell-based; conditions: 15 h pretreatment, 10 μM compound or 1 μM Tg, 4 h chase
Method: as §1

[3] = test system: ALLC interaction with BiP and GRP94; experiment: In situ cross-linking and ALLC co-immunopurification in ALMC-2 cells; assay type: cell-based, human; conditions: 10 μM, 16 h, cross-linking
Method: For immunoprecipitations, cells were washed with PBS then cross-linked with 0.5 mM Dithiobis(succinimidyl propionate) (DSP) for 30 min at room temperature. The reaction was quenched by addition of 100 mM Tris pH 7.5, then RIPA buffer was added to the cell pellets for lysis. Lysates were cleared by centrifugation at centrifuged at 10000×g for 15 min. Proteins were immunopurified using sheep polyclonal free λ LC antibody (Bethyl Laboratories A80-127A) that was covalently conjugated to CNBr-activated Sepharose 4B (GE Healthcare). After four washes in RIPA buffer, proteins were eluted by boiling in Laemmli buffer+100 mM DTT and samples were separated by SDS-PAGE and transferred to nitrocellulose membranes. Blots were probed with the following primary antibodies: monoclonal mouse M2 anti-FLAG (1:500, Sigma), polyclonal rabbit anti-TTR (1:1000, Dako), rabbit polyclonal anti-human lambda light chain (1:1000, Bethyl Laboratories A90-112A), mouse monoclonal anti-Grp78 (1:500, Santa Cruz Biotechnology sc-166490), rabbit polyclonal anti-Grp94 (1:1000, GeneTex GTX103203), rabbit polyclonal anti-PDIA4 (1:1000, Protein Tech Group 14712-1-AP), mouse monoclonal anti-ATF6a (1-7) (BioAcademia, 1:1000), rabbit anti-phospho eIF2α (CellSignaling #9721, 1:500), mouse anti-eIF2α (Abcam ab5369, 1:1000) and mouse monoclonal anti β-actin (1:10000, Sigma).

BiP expression = experiment: BiP qPCR 24 h timecourse; assay type: cell-based
Method: Cells were treated as described at 37° C., washed with Dulbecco's phosphate-buffered saline (Gibco), and then RNA was extracted using the RNeasy Mini Kit (Qiagen). qPCR reactions were performed on cDNA prepared from 500 ng of total cellular RNA using the QuantiTect Reverse Transcription Kit (Qiagen). The FastStart Universal SYBR Green Master Mix (Roche), cDNA, and appropriate human primers^4 or mouse primers (BiP; […] (SEQ ID NO: 5) and […] (SEQ ID NO: 6) purchased from Integrated DNA Technologies were used for amplifications (45 cycles of 1 min at 95° C., 10 s at 95° C., 30 sec at 60° C.) in an ABI 7900HT Fast Real Time PCR machine. Primer integrity was assessed by a thermal melt to confirm homogeneity and the absence of primer dimers. Transcripts were normalized to the housekeeping gene Rplp2 and all measurements were performed in triplicate. Data were analyzed using the RQ Manager and DataAssist 2.0 softwares (ABI).

Row | Structure (SMILES) | % ERSE-FLuc activation [1] | ^FTTTR^WT secretion (in words) (^FTTTR^WT) | accumulation of [35S]-labeled protein in media (total secreted proteome) [2] | ALLC interaction with BiP and GRP94 [3] | time of maximal BiP induction (BiP expression)
1 | Cc1ccc(O)c(N/C=C/C(=O)c2ccc(F)cc2)c1 [Compound 132] | 140.1 ± 17.4% | did not significantly influence | did not influence | increased | 6 h
2 | Cc1ccc(O)c(NC(=O)CCc2ccccc2)c1 [Compound 147] | 63.2 ± 0.6% | did not significantly influence | did not influence | increased | 6 h
3 | O=[N+]([O-])c1ccc(N/N=C/c2ccccc2O)cc1 [Compound 263] | 20.7 ± 2.3% | did not significantly influence | did not influence | unchanged | 6 h

Source: patent publication US11135186B2, “Regulators of the endoplasmic reticulum proteostasis network” (The Scripps Research Institute, priority 2015, dated 2021)
